Data taken from patent publication US20240279236A1, “COMPOUNDS AND METHODS OF TREATING TUBERCULOSIS” (Fimbrion Therapeutics, Inc., priority 2021, published 2024).
pIC50: −log10 of the molar value.

Each molecule was assayed on WT Mtb Erdman strain (assay: Microplate Alamar Blue Assay (MABA), Mtb growth inhibition). Settings: Mycobacterium tuberculosis, ERDMAN, 168 h, Middlebrook 7H9 media, 7 days at 37° C. in 5% CO2.
Format: cell-based, Mycobacterium tuberculosis
Cc1cc2c(NCCCc3ccc(C(C)(C)C)cc3)nc(C(F)(F)F)nc2s1 [Example 206, N-(3-(4-(tert-butyl)phenyl)propyl)-6-methyl-2-(trifluoromethyl) thieno[2,3-d] pyrimidin-4-amine] gave a pIC50 of 6.59. For Cc1cc2c(NCCCCc3ccc(Br)cc3)nc(-c3ccoc3)nc2s1 [Example 207, N-(4-(4-bromophenyl)butyl)-2-(furan-3-yl)-6-methylthieno[2,3-d]pyrimidin-4-amine], the pIC50 was 6.46. For Cc1cc2c(NCCCN3CCN(c4ccccc4)CC3)nc(-c3ccoc3)nc2s1 [Example 208, 2-(furan-3-yl)-6-methyl-N-(3-(4-phenylpiperazin-1-yl)propyl)thieno[2,3-d]pyrimidin-4-amine], the pIC50 was 5.49. Work on Cc1cc2c(NCCN3CCN(c4ccccc4)CC3)nc(-c3ccoc3)nc2s1 [Example 209, 2-(furan-3-yl)-6-methyl-N-(2-(4-phenylpiperazin-1-yl)ethyl)thieno[2,3-d]pyrimidin-4-amine] yielded a pIC50 of 5.31. Work on Cc1cc2c(NCCC(=O)N3CCN(c4ccccc4)CC3)nc(-c3ccoc3)nc2s1 [Example 210, 3-((2-(furan-3-yl)-6-methylthieno[2,3-d]pyrimidin-4-yl)amino)-1-(4-phenylpiperazin-1-yl)propan-1-one] yielded a pIC50 of 5.09. For Cc1cc2c(NCCCc3ccc(Br)cc3F)nc(-c3ccoc3)nc2s1 [Example 211, N-(3-(4-bromo-2-fluorophenyl)propyl)-2-(furan-3-yl)-6-methylthieno[2,3-d]pyrimidin-4-amine], the pIC50 was 6.92. Clc1nc(NCCCc2ccccc2)c2ccsc2n1 [Example 218, 2-chloro-N-(3-phenylpropyl)thieno [2,3-d]pyrimidin-4-amine] showed a pIC50 of 5.19. With COc1ccc(CCCNc2nc(Cl)nc3sccc23)cc1 [Example 219, 2-chloro-N-(3-(4-methoxyphenyl)propyl)thieno[2,3-d]pyrimidin-4-amine] the pIC50 was under 5.11. Work on Fc1ccc([C@@H]2C[C@H]2Nc2nc(Cl)nc3sccc23)cc1F [Example 220, 2-chloro-N-((1R,2S)-2-(3,4-difluorophenyl)cyclopropyl)thieno[2,3-d]pyrimidin-4-amine] yielded a pIC50 of under 5.14. Fc1ccc([C@@H]2C[C@H]2Nc2nc(Cl)nc3scnc23)cc1F [Example 221, 5-chloro-N-((1R,2S)-2-(3,4-difluorophenyl)cyclopropyl)thiazolo [5,4-d]pyrimidin-7-amine] gave a pIC50 of under 5.00. Cc1cc2c(N[C@@H]3C[C@H]3c3ccc(F)c(F)c3)nc(Cl)nc2s1 [Example 222, 2-chloro-N-((1R,2S)-2-(3,4-difluorophenyl)cyclopropyl)-6-methylthieno[2,3-d]pyrimidin-4-amine] was tested, and the pIC50 was 5.82. Molecule Cc1cc2c(NCCCc3ccc(OC(F)(F)F)cc3)nc(Cl)nc2s1 [Example 223, 2-chloro-6-methyl-N-(3-(4-(trifluoromethoxy)phenyl)propyl) thieno[2,3-d] pyrimidin-4-amine] has a pIC50 of 5.77. Work on Cc1cc2c(NCCCc3ccccc3)nc(Cl)nc2s1 [Example 224, 2-chloro-6-methyl-N-(3-phenylpropyl)thieno [2,3-d]pyrimidin-4-amine] yielded a pIC50 of 5.80. With Cc1cc2c(NC/C=C/c3ccccc3)nc(Cl)nc2s1 [Example 225, 2-chloro-N-cinnamyl-6-methylthieno[2,3-d]pyrimidin-4-amine] the pIC50 was 6.41. Cc1cc2c(N[C@@H]3C[C@H]3c3ccc(F)c(F)c3)nc(OCC(F)(F)F)nc2s1 [Example 226, N-((1R,2S)-2-(3,4-difluorophenyl)cyclopropyl)-6-methyl-2-(2,2,2-trifluoroethoxy)thieno [2,3-d]pyrimidin-4-amine] gave a pIC50 of 5.92. For Cc1cc2c(N[C@@H]3C[C@H]3c3ccc(F)c(F)c3)nc(C#N)nc2s1 [Example 227, 4-(((1R,2S)-2-(3,4-difluorophenyl)cyclopropyl)amino)-6-methylthieno[2,3-d]pyrimidine-2-carbonitrile], the pIC50 was 5.48. Cc1cccc(CCCNc2nc(C(F)(F)F)nc3sc(C)cc23)c1 [Example 228, 6-methyl-N-(3-(m-tolyl)propyl)-2-(trifluoromethyl)thieno [2,3-d]pyrimidin-4-amine] gave a pIC50 of 5.82. With COC(=O)c1cccc(CCCNc2nc(C(F)(F)F)nc3sc(C)cc23)c1 [Example 229, methyl 3-(3-((6-methyl-2-(trifluoromethyl)thieno [2,3-d]pyrimidin-4-yl)amino)propyl) benzoate] the pIC50 was 5.23. Cc1cc2c(NCCCc3cc4ccccc4s3)nc(C(F)(F)F)nc2s1 [Example 230, N-(3-(benzo [b]thiophen-2-yl)propyl)-6-methyl-2-(trifluoromethyl) thieno [2,3-d]pyrimidin-4-amine] showed a pIC50 of 5.60. Work on Cc1cc2c(NCCCc3cccc(F)c3)nc(C(F)(F)F)nc2s1 [Example 231, N-(3-(3-fluorophenyl)propyl)-6-methyl-2-(trifluoromethyl)thieno [2,3-d]pyrimidin-4-amine] yielded a pIC50 of 5.82. With Cc1cc2c(NCCCc3ccc4ccccc4c3)nc(C(F)(F)F)nc2s1 [Example 232, 6-methyl-N-(3-(naphthalen-2-yl)propyl)-2-(trifluoromethyl) thieno[2,3-d] pyrimidin-4-amine] the pIC50 was 5.89. For Cc1cc2c(NCCCc3ccc(OC4CC4)cc3)nc(C(F)(F)F)nc2s1 [Example 233, N-(3-(4-cyclopropoxyphenyl)propyl)-6-methyl-2-(trifluoromethyl) thieno[2,3-d] pyrimidin-4-amine], the pIC50 was 5.68. With Cc1cc2c(NCCCc3ccc(C4CCCCC4)cc3)nc(C(F)(F)F)nc2s1 [Example 234, N-(3-(4-cyclohexylphenyl)propyl)-6-methyl-2-(trifluoromethyl) thieno[2,3-d] pyrimidin-4-amine] the pIC50 was 5.74. With Cc1cc2c(NCCCc3ccc(N)cc3)nc(C(F)(F)F)nc2s1 [Example 235, N-(3-(4-aminophenyl)propyl)-6-methyl-2-(trifluoromethyl) thieno[2,3-d]pyrimidin-4-amine] the pIC50 was under 5.00. Work on CCCc1ccc(CCCNc2nc(C(F)(F)F)nc3sc(C)cc23)cc1 [Example 236, 6-methyl-N-(3-(4-propylphenyl)propyl)-2-(trifluoromethyl) thieno [2,3-d]pyrimidin-4-amine] yielded a pIC50 of 5.85. Cc1cc2c(NCCCc3ccc(C4CC4)cc3)nc(C(F)(F)F)nc2s1 [Example 237, N-(3-(4-cyclopropylphenyl)propyl)-6-methyl-2-(trifluoromethyl) thieno[2,3-d] pyrimidin-4-amine] showed a pIC50 of 5.74. Work on Cc1cc2c(NCCCc3ccc(C#N)cc3)nc(C(F)(F)F)nc2s1 [Example 238, 4-(3-((6-methyl-2-(trifluoromethyl)thieno[2,3-d]pyrimidin-4-yl)amino)propyl) benzonitrile] yielded a pIC50 of under 5.00. With Cc1cc2c(NCCCc3cccs3)nc(C(F)(F)F)nc2s1 [Example 239, 6-methyl-N-(3-(thiophen-2-yl)propyl)-2-(trifluoromethyl) thieno[2,3-d] pyrimidin-4-amine] the pIC50 was under 5.17. Cc1cc2c(NCCCc3cc(F)cc(C(F)(F)F)c3)nc(C(F)(F)F)nc2s1 [Example 240, N-(3-(3-fluoro-5-(trifluoromethyl)phenyl)propyl)-6-methyl-2-(trifluoromethyl) thieno[2,3-d] pyrimidin-4-amine] gave a pIC50 of 5.54. With COc1cccc(CCCNc2nc(C(F)(F)F)nc3sc(C)cc23)c1 [Example 241, N-(3-(3-methoxyphenyl)propyl)-6-methyl-2-(trifluoromethyl) thieno[2,3-d] pyrimidin-4-amine] the pIC50 was 5.51. Cc1cc2c(NCCCc3ccc(S(C)(=O)=O)cc3)nc(C(F)(F)F)nc2s1 [Example 242, 6-methyl-N-(3-(4-(methylsulfonyl)phenyl)propyl)-2-(trifluoromethyl) thieno[2,3-d] pyrimidin-4-amine] gave a pIC50 of under 5.00. Cc1cc2c(NCCCc3cccc(C#N)c3)nc(C(F)(F)F)nc2s1 [Example 243, 3-(3-((6-methyl-2-(trifluoromethyl)thieno[2,3-d]pyrimidin-4-yl)amino)propyl) benzonitrile] gave a pIC50 of under 5.10. Cc1ccc(CCCNc2nc(C(F)(F)F)nc3sc(C)cc23)cc1 [Example 244, 6-methyl-N-(3-(p-tolyl)propyl)-2-(trifluoromethyl) thieno[2,3-d] pyrimidin-4-amine] gave a pIC50 of 6.00. Molecule Cc1cc2c(NCCCc3ccc(Cl)cc3)nc(C(F)(F)F)nc2s1 [Example 245, N-(3-(4-chlorophenyl)propyl)-6-methyl-2-(trifluoromethyl) thieno[2,3-d] pyrimidin-4-amine] has a pIC50 of 5.74. With COC(=O)c1ccc(CCCNc2nc(C(F)(F)F)nc3sc(C)cc23)cc1 [Example 246, methyl 4-(3-((6-methyl-2-(trifluoromethyl)thieno[2,3-d]pyrimidin-4-yl)amino)propyl) benzoate] the pIC50 was under 5.00. Cc1cc2c(NCCCc3ccccc3C)nc(C(F)(F)F)nc2s1 [Example 247, 6-methyl-N-(3-(o-tolyl)propyl)-2-(trifluoromethyl) thieno[2,3-d] pyrimidin-4-amine] showed a pIC50 of 5.85. Work on Cc1cc2c(NCCCc3cccc(Cl)c3)nc(C(F)(F)F)nc2s1 [Example 248, N-(3-(3-chlorophenyl)propyl)-6-methyl-2-(trifluoromethyl) thieno[2,3-d] pyrimidin-4-amine] yielded a pIC50 of 5.74. Molecule Cc1cc2c(NCCCc3ccccc3Cl)nc(C(F)(F)F)nc2s1 [Example 249, N-(3-(2-chlorophenyl)propyl)-6-methyl-2-(trifluoromethyl)thieno [2,3-d]pyrimidin-4-amine] has a pIC50 of 5.40. For CCc1nc(NCCCc2ccc(N(C)C)cc2)c2cc(C)sc2n1 [Example 250, N-(3-(4-(dimethylamino)phenyl)propyl)-2-ethyl-6-methylthieno [2,3-d]pyrimidin-4-amine], the pIC50 was 6.70. CCc1nc(NCCCc2ccc(C)cc2)c2cc(C)sc2n1 [Example 251, 2-ethyl-6-methyl-N-(3-(p-tolyl)propyl)thieno [2,3-d]pyrimidin-4-amine] was tested, and the pIC50 was 7.00. For CCc1nc(NCCCc2ccc(OC(F)(F)F)c(F)c2)c2cc(C)sc2n1 [Example 252, 2-ethyl-N-(3-(3-fluoro-4-(trifluoromethoxy)phenyl)propyl)-6-methylthieno[2,3-d]pyrimidin-4-amine], the pIC50 was 6.22.
